From patent US20130310387A1, “Monocyclic Heteroaryl Cycloalkyldiamine Derivatives” (NOVARTIS AG, priority 2012, published 2013) come the findings set out here.

Data set [1] deals with phosphorylation of BLNK in Ramos B cells. As to the kind of experiment: Anti IgM-induced phosphorylation of BLNK in Ramos B cells. Type of data set: cell-based. The note with it: Homo sapiens, 0.25 h, anti IgM 15 min, flow cytometry anti-BLNK (pY84). Here is the method: Anti IgM-induced phosphorylation of BLNK (BLNK=B cell linker (SLP65=SH2 domain containing leukocyte protein of 65 kDa)) in Ramos B cells: Ramos B cells in a volume of 25 μl were incubated with 25 μl of the compound solution at 2-fold the desired final concentration for 30 min. at 37° C. Then 50 μL anti IgM was added, mixed and incubated for 15 min. at 37° C. In each experiment 8-fold serial dilutions of compounds were tested. The stimulation was stopped by addition of 100 μL/well of PFA (para formaldehyde) I PBS (phosphate buffered saline) (final conc. 2% PFA) for fixation and incubated for 15 min. at 37° C., then centrifuged at 1300 rpm for 3 min and permeabilized by resuspending the cell pellet in 100 μL methanol 90% and further incubated for 30 min at 4° C. The cells were then washed and phosphoproteins were detected by flow cytometry using fluorescently labeled anti-BLNK ([…]) (BD Biosciences).

The target of data set [2] is Syk (2-635) (KSYK_HUMAN, P43405) (Homo sapiens, UniProt P43405). The experiment in a line: Syk enzyme assay (chip based microfluidic mobility shift assay). It counts as biochemical. The settings on record: 4 μM ATP, 4 nM Syk, 60 minutes at 30° C. Here is the method: A number of compounds of the present invention were assayed in a chip based microfluidic mobilitiy shift assay. All assays were performed in 384 well microtiter plates. Each assay plate contained 8-point serial dilutions for 40 test compounds, as well as four 8-point serial dilutions of staurosporine as reference compound, plus 16 high- and 16 low controls. Liquid handling and incubation steps were done on a Thermo CatX workstation equipped with a Innovadyne Nanodrop Express. Between pipetting steps, tips were cleaned in wash cycles using wash buffer. The assay plates were prepared by addition of 50 nl per well of compound solution in 90% DMSO. […] Kinase reactions were incubated at 30° C. for 60 minutes and subsequently terminated by addition of 16 μl per well of stop solution (100 mM HEPES pH 7.5, 5% DMSO, 0.1% Caliper coating reagent, 10 mM EDTA, and 0.015% Brij35). Plates with terminated kinase reactions were transferred to the Caliper LC3000 workstations for reading. Phosphorylated and unphosphorylated peptides were separated using the Caliper microfluidic mobility shift technology. Briefly, samples from terminated kinase reactions were applied to the chip. Analytes are transported through the chip by constant buffer flow and the migration of the substrate peptide is monitored by the fluorescence signal of its label. Phosphorylated peptide (product) and unphosphorylated peptide (substrate) are separated in an electric field by their charge/mass ratio. Kinase activities were calculated from the amounts of formed phospho-peptide. […] values were determined from percent inhibition values at different compound concentrations by non-linear regression analysis.
Test compounds were dissolved in DMSO (10 mM) and transferred into 1.4 mL flat bottom or V-shaped Matrix tubes carrying a unique 2D matrix. The stock solutions were stored at […] if not used immediately. For the test procedure the vials were defrosted and identified by a scanner whereby a working sheet was generated that guided the subsequent working steps.
Compound dilutions were made in 96 well plates. This format enabled the assay of maximally 40 individual test compounds at 8 concentrations (single points) including 4 reference compounds. The dilution protocol included the production of “pre-dilution plates”, “master plates” and “assay plates”.
96 polypropylene well plates were used as pre-dilution plates. A total of 4 pre-dilution plates were prepared including 10 test compounds each on the plate positions A1-A10, one standard compound at A11 and one DMSO control at A12. All dilution steps were done on a HamiltonSTAR robot.
30 μL of individual compound dilutions including standard compound and controls of the 4 “pre-dilution plates” were transferred into a 384 “master plate” including the following concentrations 1′810, 362, 72.5, […], 14.5, 2.9, 0.58 and 0.12 μM, respectively in 90% of DMSO.
Identical “assay plates” were then prepared by pipetting […] each of compound dilutions of the “master plates” into 384-well “assay plates” by means of a HummingBird 384-channel dispenser. These plates were used directly for the assay which was performed in a total volume of 9.05 μL. This led to a final compound concentration of 10, 2.0, 0.4, 0.08, 0.016, 0.0032, 0.00064 and 0.000128 μM and a final DMSO concentration of 0.5% in the assay.

Data set [3] has as its system SLP-76 phosphorylation in human whole blood monocytes. As to the kind of experiment: FcR stimulation-induced SLP-76 phosphorylation in human whole blood monocytes. It counts as cell-based. The note with it: Monocyte, 5 min, anti CD32 stimulation 5 min, flow cytometry, read-out: Fc Recepor stimulation induced SLP-76 phosphorylation in human whole blood monocytes, IC50. An excerpt: After lysis of erythrocytes and washings, the cell pellet was permeabilized with ice-cold methanol 90%. The permeabilized cells were washed and stained with anti CD14 (eBioscience) to detect monocytes and anti P-SLP76 ([…]) (BD Biosciences) and quantified by flow cytometry.

The next data set addresses T1, hERG channel (Homo sapiens, UniProt Q12809).
T1 construct: host or cells: HEK293
As to the kind of experiment: Inhibition of the hERG channel (manual patch clamp assay). It counts as cell-based. The note with it: HEK293 cells stably transfected with hERG cDNA, whole-cell patch clamp, tail current. An excerpt:
The hERG patch clamp assay was done according to standard procedures used in Genetic Toxicology and Safety Pharmacology, based on recommendations and descriptions of methods in the literature, and according to current guidelines (ICH S7B, The non clinical evaluation of the potential for delayed ventricular repolarization (QT interval prolongation) by human pharmaceuticals, 2005). The purpose of the study is to assess the effect of the test item ABC123 on tail current recorded from HEK293 cells stably transfected with hERG cDNA. The HEK293 cells, which have been stably transfected with hERG cDNA, are a model considered to be suitable for this purpose (Zhou et al., 1998). Repolarisation of cardiac ventricular myocytes is mainly due to outward potassium currents. The most important current in humans is the delayed rectifier potassium current, IK, which has both rapidly and slowly activating components (IKr and IKs) (Sanguinetti and Jurkiewicz, 1990). The human ether-a-gogo-related-gene (hERG) encodes the major protein underlying IKr. Thus, inhibition of hERG potassium channels may lead to delayed cardiac repolarisation (Sanguinetti et al., 1995). Prolongation of cardiac repolarisation is a side effect that can be associated with some drug therapies. This proarrhythmic alteration is characterised by a prolongation of the QT interval in the surface electrocardiogram and is of particular concern because it may lead to the development of polymorphic ventricular arrhythmias like torsade de pointes (for review see: Vandenberg, Walker and Campbell, 2001). […] HERG HEK (HEK293 cells stably transfected with hERG cDNA) obtained from the University of Wisconsin were used. For the experiments the cells were plated onto sterile Thermanox plastic coverslips (Nalge Nunc International) in 6-well plates. The dishes were stored in a humidified, gassed incubator. The coverslips with cells were transferred to the recording chamber and continuously superfused (at approximately 1-2 ml/min) with vehicle. The temperature of the vehicle in the bath chamber was regulated by temperature controllers to 35° C.±2.0° C. hERG currents were measured in the whole-cell patch-clamp configuration. Once a stable patch clamp configuration was achieved, recording commenced in voltage-clamp mode, with the cell initially clamped at -75 mV. hERG current was observed and recorded if a stable hERG tail current response could be induced. […] The hERG HEK293 cells were treated approximately 9 min with the test item. The following voltage protocol was applied to induce hERG currents: The step from -75 mV to +10 mV activates an outward current (i.e. current flows out of the cell) and the step from +10 mV to -40 mV produces the tail current (the tail current represents the time taken for the current to turn off). […] The leak current was recorded and subtracted by a P/3n pulse between the voltage pulses (0.1 Hz).
(Block of hERG is tested as a sign of cardiac risk.)

T1 sequence (Q12809 whole entry): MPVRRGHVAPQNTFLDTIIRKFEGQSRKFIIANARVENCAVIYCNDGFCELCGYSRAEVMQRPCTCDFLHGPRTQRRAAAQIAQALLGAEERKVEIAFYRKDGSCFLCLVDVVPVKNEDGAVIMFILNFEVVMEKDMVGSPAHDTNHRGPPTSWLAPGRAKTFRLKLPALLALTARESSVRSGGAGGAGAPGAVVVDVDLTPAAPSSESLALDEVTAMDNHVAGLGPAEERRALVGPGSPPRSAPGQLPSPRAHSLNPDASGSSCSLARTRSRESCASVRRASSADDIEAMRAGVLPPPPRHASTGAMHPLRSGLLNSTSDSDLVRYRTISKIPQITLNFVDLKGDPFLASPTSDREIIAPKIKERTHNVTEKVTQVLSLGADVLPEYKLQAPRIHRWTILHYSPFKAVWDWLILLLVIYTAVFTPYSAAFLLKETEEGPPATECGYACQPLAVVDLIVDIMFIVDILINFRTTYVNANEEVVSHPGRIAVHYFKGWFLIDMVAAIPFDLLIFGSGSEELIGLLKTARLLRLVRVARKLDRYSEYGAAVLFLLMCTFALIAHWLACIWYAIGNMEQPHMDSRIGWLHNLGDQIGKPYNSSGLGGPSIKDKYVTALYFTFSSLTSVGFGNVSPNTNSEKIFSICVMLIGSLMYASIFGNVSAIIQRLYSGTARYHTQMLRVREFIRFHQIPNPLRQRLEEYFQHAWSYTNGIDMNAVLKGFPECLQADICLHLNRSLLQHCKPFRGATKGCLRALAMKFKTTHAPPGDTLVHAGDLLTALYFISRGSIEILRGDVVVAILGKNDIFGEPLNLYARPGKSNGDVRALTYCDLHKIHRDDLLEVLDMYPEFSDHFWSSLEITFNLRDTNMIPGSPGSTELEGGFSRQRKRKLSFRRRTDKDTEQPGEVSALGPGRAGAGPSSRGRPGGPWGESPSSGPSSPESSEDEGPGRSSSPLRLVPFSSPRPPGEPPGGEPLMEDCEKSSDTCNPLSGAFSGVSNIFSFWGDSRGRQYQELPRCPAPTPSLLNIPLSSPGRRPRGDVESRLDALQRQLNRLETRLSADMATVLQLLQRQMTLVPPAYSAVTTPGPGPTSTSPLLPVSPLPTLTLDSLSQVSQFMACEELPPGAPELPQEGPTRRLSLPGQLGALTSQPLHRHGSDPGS

Consider `Cc1c[nH]c2c(Nc3nc(N[C@@H]4CCCC[C@@H]4N)nnc3C(N)=O)cc(F)cc12` [Example 1.2, 3-((1R,2S)-2-Amino-cyclohexylamino)-5-(5-fluoro-3-methyl-1H-indol-7-ylamino)-[1,2,4]triazine-6-carboxylic acid amide], for which the IC50 (as a rule, the concentration that inhibits the measured activity by half) in data set [1] stood at 0.063 µM; in data set [2], 0.0008 µM; in data set [3] it was 0.491 µM.
For `Cc1c[nH]c2c(Nc3nc(N[C@@H]4CCCC[C@@H]4N)nnc3C(N)=O)cccc12` [Example 1.3, 3-((1R,2S)-2-Amino-cyclohexylamino)-5-(3-methyl-1H-indol-7-ylamino)-[1,2,4]triazine-6-carboxylic acid amide], the IC50 amounted to 0.072 µM in data set [1], 0.0035 µM in data set [2] and 0.447 µM in data set [3]. Moreover, the inhibition (commonly the relative decrease from the control value, in per cent) at 9 min, 3 µM against hERG channel (at 3 uM) was 24 ± 3%. The compound further displayed an inhibition at 9 min, 10 µM at hERG channel (at 10 uM) of 37 ± 6%. Besides, the inhibition at 9 min, 30 µM against hERG channel (at 30 uM) is 74 ± 6%.
As to `NC(=O)c1nnc(N[C@@H]2CCCC[C@@H]2N)nc1Nc1cccc2[nH]ccc12` [Example 1.4, 3-((1R,2S)-2-Amino-cyclohexylamino)-5-(1H-indol-4-ylamino)-[1,2,4]triazine-6-carboxylic acid amide], the IC50 in data set [1] is 0.014 µM; in data set [2], 0.001 µM; in data set [3], 0.177 µM.
The matching figures for `Cn1ncc2c(Nc3nc(N[C@@H]4CCCC[C@@H]4N)nnc3C(N)=O)cccc21` [Example 2.1, 3-((1R,2S)-2-Amino-cyclohexylamino)-5-(1-methyl-1H-indazol-4-ylamino)-[1,2,4]triazine-6-carboxylic acid amide]: 0.121 µM, 0.012 µM and 0.509 µM.
For `Cn1cc2c(Nc3nc(N[C@@H]4CCCC[C@@H]4N)nnc3C(N)=O)cccc2n1` [Example 2.2, 3-((1R,2S)-2-Amino-cyclohexylamino)-5-(2-methyl-2H-indazol-4-ylamino)-[1,2,4]triazine-6-carboxylic acid amide], the IC50 in data set [1] turned out to be 0.058 µM; in data set [3], 0.394 µM.
In the case of `NC(=O)c1nnc(N[C@@H]2CCCC[C@@H]2N)nc1Nc1cccc2c(Cl)c[nH]c12` [Example 2.3, 3-((1R,2S)-2-Amino-cyclohexylamino)-5-(3-chloro-1H-indol-7-ylamino)-[1,2,4]triazine-6-carboxylic acid amide], the IC50 in data set [1] worked out at 0.393 µM; in data set [2], 0.011 µM.
As to `N#Cc1c[nH]c2c(Nc3nc(N[C@@H]4CCCC[C@@H]4N)nnc3C(N)=O)cccc12` [Example 2.4, 3-((1R,2S)-2-Amino-cyclohexylamino)-5-(3-cyano-1H-indol-7-ylamino)-[1,2,4]triazine-6-carboxylic acid amide], the IC50 in data set [1] turned out to be 0.89 µM; in data set [2] it was 0.086 µM.
Turning to `NC(=O)c1nnc(N[C@@H]2CCCC[C@@H]2N)nc1Nc1cccc2[nH]ncc12` [Example 2.5, 3-((1R,2S)-2-Amino-cyclohexylamino)-5-(1H-indazol-4-ylamino)-[1,2,4]triazine-6-carboxylic acid amide], the half-maximal inhibitory concentration (IC50) in data set [1] worked out at 0.106 µM; in data set [2], 0.03 µM; in data set [3], 0.671 µM.
Take `NC(=O)c1nnc(N[C@@H]2CCCC[C@@H]2N)nc1Nc1cc(F)cc2cc[nH]c12` [Example 2.6, 3-((1R,2S)-2-Amino-cyclohexylamino)-5-(5-fluoro-1H-indol-7-ylamino)-[1,2,4]triazine-6-carboxylic acid amide]: the values for the IC50 in data set [1], in data set [2] and in data set [3] were 0.037 µM, 0.0046 µM and 0.562 µM, respectively.
With `Cn1ccc2c(Nc3nc(N[C@@H]4CCCC[C@@H]4N)cnc3C(N)=O)cccc21` [Example 3.1, 5-((1R,2S)-2-Amino-cyclohexylamino)-3-(1-methyl-1H-indol-4-ylamino)-pyrazine-2-carboxylic acid amide], the IC50 in data set [1] worked out at 0.025 µM; in data set [2], 0.0005 µM.
As to `NC(=O)c1ncc(N[C@@H]2CCCC[C@@H]2N)nc1Nc1cccc2cc[nH]c12` [Example 4.1, 5-((1R,2S)-2-Amino-cyclohexylamino)-3-(1H-indol-7-ylamino)-pyrazine-2-carboxylic acid amide], the IC50 in data set [1] amounted to 0.028 µM; in data set [2], 0.0027 µM; in data set [3], 0.311 µM.
In the case of `Cc1c[nH]c2c(Nc3nc(N[C@@H]4CCCC[C@@H]4N)cnc3C(N)=O)cccc12` [Example 4.2, 5-((1R,2S)-2-Amino-cyclohexylamino)-3-(3-methyl-1H-indol-7-ylamino)-pyrazine-2-carboxylic acid amide], the IC50 in data set [1] amounted to 0.036 µM; in data set [2], 0.001 µM; in data set [3] it was 0.596 µM.
